# Assays:
# [1] = tested on: TRPA1+ fibers of the vagus nerve; assay: Optovin applied to the vagus nerve with 405 nm optical stimulation, followed by LPS endotoxemia; serum TNF; type: in vivo, mice; settings: TRPA1 KO mice; optovin + 405 nm light vs no light; LPS 8 mg/kg
# Description: (§1) FIG. 1A-1C. Stimulation of sensory TRPA1+ vagus fibers attenuates serum TNF levels in endotoxemic mice. A) Wild type mice were treated with optovin directly to the vagus nerve, followed by exposure to no light (n=9) or 405 nm light (n=10). Mice were also subjected to a proximal vagotomy (n=12) cutting off afferent signaling to the brain. These mice were also treated with optovin and stimulated with 405 nm light. B) TRPA1 KO mice were treated with optovin directly to the vagus nerve. The mice were then treated with no light (n=9) or 405 nm light (n=8). C) α7 KO mice were treated with optovin directly to the vagus nerve. The mice were then treated with no light (n=10) or 405 nm light (n=12). Two asterisks indicate p<0.01.
# (§2) Optical stimulation was generated by Thor Labs LED driver DC4100, with a 405 nm LED model M405L3 (Newton, N.J.). Sham mice underwent surgical control up to the point of identifying the cervical vagus nerve, without isolating it from the bundle. In both conditions 2 μl of optovin was applied directly on the nerve for 2 minutes prior to stimulation. Sham animals received no light applied to the nerve. The stimulated group received 405 nm light 1000 mA, 10 hz, with a 10% duty cycle for 5 minutes with an approximate power of 80-85 μW. Animals then recovered for 2 hours and were administered LPS (8 mg/kg) via intraperitoneal (ip) injection. Mice were euthanized 1.5 hours after LPS administration, with serum collected.
# (§3) All vagotomized animas had their vagus nerve isolated. Prior to the vagotomy a 6.0 suture was tied around the vagus nerve. The nerve was then cut proximally or above (blocking left vagus nerve signaling to the brain while signaling to the periphery remained intact) to where 2 μl of optovin was to be added. All mice were stimulated using the same parameters as previously indicated. Animals then recovered for 2 hours and were administered LPS (8 mg/kg) via intraperitoneal (ip) injection. Mice were euthanized 1.5 hours after LPS administration, with serum collected.
# (§4) Vagus nerve stimulation has been used as a treatment for peripheral inflammation in both rodents and humans^18-21. TRPA1 is an ion channel that has been indicated in neural sensing of inflammation within the skin and lungs 22-24. To determine TRPA1's role in the inflammatory reflex, photochemical stimulation of TRPA1+ fibers of the vagus nerve was carried out using a molecule called optovin. Optovin selectively binds to TRPA1 making it photoactive to 405 nm light^25. To directly stimulate the TRPA1+ vagus nerve fibers, optovin was applied directly to nerve, with one group unstimulated and one group stimulated with the 405 nm light for 5 minutes with LPS (8 mg/kg) administer 2 hours later. […]
# [2] = biological target: T1, TRPA1+ fibers of the vagus nerve (Mus musculus, UniProt Q8BLA8); assay: as above; type: in vivo, mice
# T1 construct: optovin was applied directly to nerve; from tissue; also TRPA1 KO and α7 nAChR KO groups
# Description: as §1, §2, §3, §4
# nodose ganglion neurons = assay: Whole-cell patch clamp recordings of nodose ganglion neurons; type: cell-based, mice; settings: nodose neurons held at −65 mV; IL-1β 20 μg/ml
# Description: Whole-cell patch clamp recordings were made with glass pipettes pulled on a P-97 electrode puller (Sutter Instruments, Novato, Calif.). The resistance of the pipettes was 2-4 MΩ when filled with an intracellular solution (in mM: CsCl 140, HEPES 10, EGTA 5, Mg-ATP 2, NaGTP 0.3, MgCl2 2, Phosphocreatine 10, pH 7.25 adjusted with CsOH). Cells were superfused at a rate of 2 ml/min with an external bath solution containing the following (in mM): 150 NaCl, 2.5 KCl, 10 HEPES, 10 D-glucose, 2 CaCl2, and 1 MgCl2, pH 7.3-7.4. Experiments were performed at room temperature (22-24° C.). Currents from neurons were monitored with an Multiclamp 700B amplifier (Molecular Devices, Union City, Calif.), acquired through Digidata 1550B (Molecular Devices) onto a computer using pClamp 11 software (Molecular Devices). Data were analyzed using Clampfit 11 (Molecular Devices). All chemicals used for electrophysiological recordings were purchased from Sigma. All drugs and solutions were made fresh from drug stock solutions.
# Using patch clamp recordings, IL-1β responses were recorded in nodose ganglion neurons. Application of IL-1β (20 μg/ml) induced calcium influx as indicated by increase of fluorescence in 6 out of 332 (1.8%) sensory nodose ganglion neurons from VGlut2-GCaMP3 mice. Next, whole-cell patch clamp recordings were carried out on the same neurons that responded to IL-1β in calcium influx analysis. When the membrane potential was held at −65 mV, bath application of IL-1β (20 μg/ml) produced slow inward currents in 4 out of 332 (1.2%) nodose neurons. The amplitude of IL-1β induced currents are 108±23 pA (n=4). […] In current-clamp mode, IL-1β reduced action potential threshold from −25±2 mV to −31±3 mV (n=4). […] To further determine the potential interaction of TRPA1 with IL-1β, nodose ganglion neurons from TRPA1 KO mice were examined in a culture system. […] IL1R1 co-localizes with TRPA1 on nodose ganglion neurons, as was determined using immunohistochemical staining.
# TRPA1+ neurons [3] = assay: Pharmacological stimulation of TRPA1+ neurons with polygodial in endotoxemic mice; TNF by ELISA; type: in vivo; settings: TRPA1 KO mice; polygodial 5 mg/kg ip 30 min before endotoxin 0.1 mg/kg ip; collected after 90 min
# Description: (§5) FIG. 2A-2D. […] A) Serum: wildtype mice received intraperitoneal administration of polygodial (5 mg/kg) (n=6) or vehicle (n=5). After 30 minutes, mice were subjected to endotoxemia (0.1 mg/kg endotoxin, i.p.). Blood was collected after 90 min and serum TNF levels were determined by ELISA. *p<0.05. B) Spleen: wildtype mice received intraperitoneal administration of polygodial (5 mg/kg) (n=7) or vehicle (n=6). After 30 minutes, mice were subjected to endotoxemia (0.1 mg/kg endotoxin, i.p.). Spleens were collected after 90 min and serum TNF levels were determined by ELISA. *p<0.05. C, D) Pharmacological Stimulation of TRPA1+ neurons fail to attenuate TNF levels in endotoxemic TRPA1 KO mice. C) Serum: TRPA1 KO mice received intraperitoneal administration of polygodial (5 mg/kg) (n=9) or vehicle (n=8). After 30 minutes, mice were subjected to endotoxemia (0.1 mg/kg endotoxin, i.p.). Blood was collected after 90 min and serum TNF levels were determined by ELISA. D) Spleen: TRPA1 KO mice received intraperitoneal administration of polygodial (5 mg/kg) (n=9) or vehicle (n=8). After 30 minutes, mice were subjected to endotoxemia (0.1 mg/kg endotoxin, i.p.). Spleens were collected after 90 min and serum TNF levels were determined by ELISA.
# TRPA1+ neurons [4] = biological target: T2, TRPA1+ neurons (Mus musculus, UniProt Q8BLA8); assay: as above; type: in vivo; settings: wildtype mice; polygodial 5 mg/kg ip 30 min before endotoxin 0.1 mg/kg ip; collected after 90 min
# T2 construct: from tissue; host or cells: living mice (wild type and TRPA1 KO), systemic i.p. dosing; TRPA1+ neurons
# Description: as §5
# T1 sequence (Q8BLA8 whole entry): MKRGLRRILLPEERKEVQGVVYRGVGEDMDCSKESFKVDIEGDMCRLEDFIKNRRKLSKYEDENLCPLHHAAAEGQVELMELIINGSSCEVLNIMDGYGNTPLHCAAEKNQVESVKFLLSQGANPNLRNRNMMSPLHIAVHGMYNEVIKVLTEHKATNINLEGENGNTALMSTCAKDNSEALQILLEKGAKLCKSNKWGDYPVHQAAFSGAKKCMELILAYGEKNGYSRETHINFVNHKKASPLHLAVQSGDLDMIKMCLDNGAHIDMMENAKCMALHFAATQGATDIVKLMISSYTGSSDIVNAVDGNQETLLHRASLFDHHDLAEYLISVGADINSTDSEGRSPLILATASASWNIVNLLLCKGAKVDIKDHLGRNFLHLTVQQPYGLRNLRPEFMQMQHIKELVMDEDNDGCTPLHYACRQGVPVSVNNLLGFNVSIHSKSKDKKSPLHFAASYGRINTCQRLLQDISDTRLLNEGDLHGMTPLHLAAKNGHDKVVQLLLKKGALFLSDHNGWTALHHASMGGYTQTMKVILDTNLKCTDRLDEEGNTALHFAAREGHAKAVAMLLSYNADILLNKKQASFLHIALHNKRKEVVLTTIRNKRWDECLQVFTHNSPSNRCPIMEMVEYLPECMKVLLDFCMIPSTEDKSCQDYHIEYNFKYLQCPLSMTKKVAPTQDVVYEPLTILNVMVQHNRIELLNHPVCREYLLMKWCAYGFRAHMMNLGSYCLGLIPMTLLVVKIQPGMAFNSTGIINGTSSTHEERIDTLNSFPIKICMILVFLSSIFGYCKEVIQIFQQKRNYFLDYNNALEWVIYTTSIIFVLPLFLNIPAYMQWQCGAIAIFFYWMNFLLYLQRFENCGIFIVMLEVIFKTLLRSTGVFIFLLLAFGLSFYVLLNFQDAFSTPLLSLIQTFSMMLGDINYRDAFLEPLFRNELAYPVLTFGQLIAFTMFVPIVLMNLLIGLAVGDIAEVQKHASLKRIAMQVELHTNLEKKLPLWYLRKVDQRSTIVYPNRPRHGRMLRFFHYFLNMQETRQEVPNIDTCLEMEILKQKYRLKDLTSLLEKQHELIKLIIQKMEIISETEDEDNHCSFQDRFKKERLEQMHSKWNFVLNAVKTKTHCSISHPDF
# T2 sequence (Q8BLA8 whole entry): as above
smiles,measurement,setting,value
Cc1cc(/C=C2/SC(=S)NC2=O)c(C)n1-c1cccnc1 [optovin],TNF levels in response to LPS,[1],no significant reductions in TNF levels
same,TNF levels in response to LPS,"[2]; proximally vagotomized mice, optovin + 405 nm light, LPS 8 mg/kg",no significant reduction in TNF levels
same,TNF levels in response to LPS,"[2]; wild type mice, optovin on vagus nerve, 405 nm light 5 min vs no light, LPS 8 mg/kg ip 2 h later, serum 1.5 h after LPS",significantly reduced TNF levels
same,serum TNF levels,"[2]; α7 nAChR KO mice, optovin + 405 nm light vs no light, LPS 8 mg/kg",did not significantly reduce serum TNF levels
"Cn1cnc2ncn(Cc3nc(CCc4ccc(Cl)cc4)no3)c(=O)c21 [AM0902, reference compound]",Block of inward currents after IL-1β application,nodose ganglion neurons,completely blocked
CC1(C)CCC[C@]2(C)[C@@H](C=O)C(C=O)=CC[C@@H]12 [polygodial],TNF levels in serum,TRPA1+ neurons [3],no significant reduction
same,TNF levels in spleen,TRPA1+ neurons [3],no significant reduction
same,TNF levels in serum,TRPA1+ neurons [4],attenuates TNF levels
same,TNF levels in spleen,TRPA1+ neurons [4],attenuates TNF levels

# — patent US20190255175A1, “ACTIVATION OF TRPA1+ NOCICEPTORS IN THE VAGUS NERVE ATTENUATES SYSTEMIC INFLAMMATION” (THE FEINSTEIN INSTITUTE FOR MEDICAL RESEARCH, priority 2018, published 2019)
